The results in this text go back to patent US6066662A, “Hydroxylamine derivatives and their use as metalloproteinase inhibiting agents” (Hoffmann-La Roche Inc., priority 1994, dated 2000).

In general, IC50 refers to the concentration at which inhibition is half-maximal. A higher IC50 goes with weaker potency.

This assay has as its target T1, collagenase (Homo sapiens, UniProt P03956).
T1 construct: endogenous in cells; host or cells: culture of human synovial fibroblasts (conditioned medium)
T1 sequence (P03956 100-469): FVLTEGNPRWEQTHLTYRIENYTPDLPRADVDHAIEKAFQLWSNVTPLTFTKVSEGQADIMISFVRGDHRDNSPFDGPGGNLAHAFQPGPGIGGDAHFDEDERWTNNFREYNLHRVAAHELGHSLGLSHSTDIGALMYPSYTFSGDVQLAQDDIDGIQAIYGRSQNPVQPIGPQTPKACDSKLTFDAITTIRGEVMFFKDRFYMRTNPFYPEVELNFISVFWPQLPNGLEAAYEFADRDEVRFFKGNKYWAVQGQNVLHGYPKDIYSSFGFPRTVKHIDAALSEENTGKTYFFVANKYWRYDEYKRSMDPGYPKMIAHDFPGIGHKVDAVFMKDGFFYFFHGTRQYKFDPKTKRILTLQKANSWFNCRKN
Description: in vitro collagenase inhibiting activity (Test A). The settings on record: collagenase from culture of human synovial fibroblasts, trypsin-activated; substrate 14C-acetylated collagen type I from rat tail tendons; microtitre plate assay. In kind it is biochemical. As to the method:
USA (1976), 73 945, following activation of the pro-collagenase in the conditioned medium by treatment with trypsin. Collagenase activity was measured using ^14 C-acetylated collagen type I from rat tail tendons as the substrate and employing the microtitre plate assay method of Johnson-Wint, B, Anal. Biochem. (1980), 104, 175. The IC50 is that concentration of a test compound in the enzyme digestion which reduces substrate cleavage and solubilization to 50% of that achieved by the enzyme alone.
The molecule `CNC(=O)[C@@H](NC(=O)C(CC(=O)NO)CC1CCC1)C(C)(C)C` (single isomer, unassigned) [Example 1, N2-[3-cyclobutyl-2(R or S)-[(hydroxycarbamoyl)-methyl]propionyl]-N1,3-dimethyl-L-valinamide] yielded an IC50 of 2 nM. That is a single-digit nanomolar value. Next, `CNC(=O)[C@@H](NC(=O)C(CC(=O)NO)CC1CC1)C(C)(C)C` (single isomer, unassigned) [Example 2, N2-[3-cyclopropyl-2(R or S)-[(hydroxycarbamoyl)-methyl]propionyl]-N1,3-dimethyl-L-valinamide]: 7 nM. With `CNC(=O)[C@@H](NC(=O)C(CC(=O)NO)CC1CCCC1)C(C)(C)C` (single isomer, unassigned) [Example 3, N2-[3-cyclopentyl-2(R or S)-[(hydroxycarbamoyl)methyl]propionyl]-N1-3-dimethyl-L-valinamide], it took 5 nM to reach half-maximal inhibition (IC50). For `CNC(=O)[C@@H](NC(=O)[C@H](CC1CC1)C(CN1C(=O)N(C)C(C)(C)C1=O)C(=O)NO)C(C)(C)C` (single isomer, unassigned) [Example 4, N2-[3-cyclopropyl-2(R)-[1(R or S)-(hydroxycarbamoyl)-2-(3,4,4-trimethyl-2,5-dioxo-1-imidazolidinyl)ethyl]propionyl]-N1,3-dimethyl-L-valinamide], the IC50 was found to be 1 nM.

For the molecule `CNC(=O)[C@@H](NC(=O)[C@H](CC1CCC1)C(CN1C(=O)N(C)C(C)(C)C1=O)C(=O)NO)C(C)(C)C` (single isomer, unassigned) [Example 5, N2-[3-cyclobutyl-2(R)-[1(R or S)-(hydroxycarbamoyl)-2-(3,4,4-trimethyl-2,5-dioxo-1-imidazolidinyl)ethyl]propionyl]-N1,3-dimethyl-L-valinamide], the midpoint of inhibition, the IC50, lay at 1 nM.
